Laboratory results from PMC10002375, “Synthesis of 3-(2-Alkylthio-4-chloro-5-methylbenzenesulfonyl)-2-(1-phenyl-3-arylprop-2-enylideneamino)guanidine Derivatives with Pro-Apoptotic Activity against Cancer Cells” (International Journal of Molecular Sciences, 2023).

Test system: MCF-7 (breast cancer)
Assay: MTT cell viability assay, MCF-7
Assay type: cell-based, human
Text: The cytotoxic activity of the compounds 8–33 has been evaluated in MTT assays against three human cancer cell lines MCF-7 (breast cancer), HeLa (cervical cancer), and HCT-116 (colon cancer) and it was expressed as IC50 values in μM (Table 1).
All chemicals, if not stated otherwise, were obtained from Sigma-Aldrich (St. Louis, MO, USA). The MCF-7 cell line was purchased from Cell Lines Services (Eppelheim, Germany), the HeLa and HCT-116 cell lines were obtained from the Department of Microbiology, Tumor and Cell Biology, Karolinska Institute (Stockholm, Sweden). Cells were cultured in Dulbecco’s modified Eagle’s medium (DMEM) supplemented with 10% fetal bovine serum, 2 mM glutamine, 100 units/mL penicillin, and 100 μg/mL streptomycin. Cultures were maintained in a humidified atmosphere with 5% CO2 at 37 °C in an incubator (HeraCell, Heraeus, Langenselbold, Germany).
Cell viability was determined using the MTT (3-(4,5-dimethylthiazol-2-yl)-2,5-diphenyl-tetrazoliumbromide) assay. Stock solutions of the studied compounds were prepared in 100% DMSO. […] Cells were seeded in 96-well plates at a density of 5 × 10^3 cells/well and treated for 72 h with the examined compounds in the concentration range 1–100 μM (1, 10, 25, 50, and 100 μM). Following treatment, MTT (0.5 mg/mL) was added to the medium and cells were further incubated for 2 h at 37 °C. Cells were lysed with DMSO and the absorbance of the formazan solution was measured at 550 nm with a plate reader (1420 multilabel counter, Victor, Jügesheim, Germany). […] The experiment was performed in triplicate. Values are expressed as the mean ± SD of at least three independent experiments.

IC50 (Homo sapiens, MCF7, MTT, 72 h): 12 ± 0.6 µM
Compound: Cc1cc(S(=O)(=O)NC(N)=NN=C(C=Cc2ccccc2O)c2ccccc2)c(SCc2ccccc2Cl)cc1Cl [Compound 24, 3-{4-chloro-2-[(2-chlorophenyl)methylthio]-5-methylbenzenesulfonyl}-2-[3-(2-hydroxyphenyl)-1-phenylprop-2-enylideneamino]guanidine]
Selectivity Index MCF-7/HaCaT (MCF-7 versus HaCaT, from IC50 values): 2.7
